These results are taken from patent US5324725A, “7-fused 2-(piperazinoalkyl) indole derivatives, intermediates and compositions thereof” (Kali-Chemie Pharma GmbH, priority 1991, dated 1994).

The subject of assay [1] is Passive cutaneous anaphylaxis (P.C.A.). The experiment in a line: Inhibition of passive cutaneous anaphylaxis (P.C.A.). Particulars: Rattus norvegicus, 1 h; rats, 2 × 10^-5 mol/kg p.o., one hour before ovalbumin challenge. The class given is in vivo, rat (Sprague-Dawley). Put shortly: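 Sprague-Dawley rats (150-180 g) were sensitized intradermally with rat IgE-rich anti-ovalbumin serum and challenged 24 h later with i.v. ovalbumin 8.25 mg/kg plus Evans blue. Compound was given orally at 2×10^-5 mol/kg 1 h before challenge. Dye exudation was scored visually at 30 min as % inhibition versus vehicle controls.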

The test system of assay [2] is Histamine-induced anaphylactoid reactions. Put plainly: Inhibition of anaphylactoid cutaneous reaction induced by histamine. The class given is in vivo, rat (Sprague-Dawley). The following applies: Rattus norvegicus, 1 h; rats, 2 × 10^-5 mol/kg p.o., one hour before challenge; histamine intradermal. Put shortly: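 Animals received 50 μl intradermal histamine (0.8 mg/ml in saline) in the flank opposite the antiserum site, just before i.v. ovalbumin plus blue dye. Test substance at 2×10^-5 mol/kg was given orally 1 h before challenge in water with 1% DMF and 1% Tween 20. Blue-dye exudation was scored visually at 30 min, giving % inhibition versus solvent controls.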

Broadly, the inhibition in vivo is the relative decrease from the control value, in per cent. Take `CCCCCCCC1CCc2cccc3c(CCN4CCN(c5cc(C)ccn5)CC4)c(C)n1c23` (stereo not shown) [Example 4, 4-n-heptyl-5,6-dihydro-2-methyl-1-{2-[4-(4-methylpyridin-2-yl)piperazin-1-yl]ethyl}-4H-pyrrolo[3,2,1-ij]-quinoline]: the inhibition in vivo at 20 µmol/kg in assay [1] and in assay [2] was 55% in each case.

As for `COc1ccc(-c2c(CCN3CCN(c4cc(C)ccn4)CC3)c3cccc4c3n2CCC4)cc1` [Example 7, 2-(4-methoxy-phenyl)-1-{2-[4-(4-methylpyridin-2-yl)piperazin-1-yl]ethyl}-5,6-dihydro-4H-pyrrolo[3,2,1-ij]quinoline], the inhibition in vivo at 20 µmol/kg in assay [1] turned out to be 75%; in assay [2], 35%.

For the compound `Cc1ccnc(N2CCN(CCc3c(C)n4c5c(cc(Br)cc35)CCC4)CC2)c1` [Example 9, 8-Bromo-2-methyl-1-{2-[4-(4-methylpyridin-2-yl)piperazin-1-yl]ethyl}-5,6-dihydro-4H-pyrrolo[3,2,1-ij]quinoline], the inhibition in vivo at 20 µmol/kg was 90% in assay [1] and 80% in assay [2].

As for `Cc1ccnc(N2CCN(CCc3c(C)n4c5c(cc([N+](=O)[O-])cc35)CCC4)CC2)c1` [Example 10, 2-Methyl-8-nitro-1-{2-[4-(4-methylpyridin-2-yl)-piperazin-1-yl]ethyl}-5,6-dihydro-4H-pyrrolo[3,2,1-ij]quinoline], the values for the inhibition in vivo at 20 µmol/kg in assay [1] and in assay [2] were 83% and 75%, respectively.

As to `Cc1ccnc(N2CCN(CCc3c(-c4ccc(OCCCCO)cc4)n4c5c(cccc35)CCC4)CC2)c1` [Example 12, 2-[4-(4-Hydroxybutyloxy)-phenyl]-1-{2-[4-(4-methylpyridin-2-yl)piperazin-1-yl]ethyl}-5,6-dihydro-4H-pyrrolo[3,2,1-ij]quinoline], the inhibition in vivo at 20 µmol/kg in assay [1] and in assay [2] was 25% each time.

Take `CCc1c(CCN2CCN(c3cc(C)ccn3)CC2)c2cccc3c2n1CCC3` [Example 15, 2-Ethyl-5,6-dihydro-1-{2-[4-(4-methylpyridin-2-yl)piperazin-1-yl]ethyl}-4H-pyrrolo[3,2,1-ij]quinoline]: the inhibition in vivo at 20 µmol/kg in assay [1] amounted to 85%; in assay [2], 65%.

As for `Cc1ccnc(N2CCN(CCc3c(CO)n4c5c(cccc35)CCC4)CC2)c1` [Example 16, 5,6-dihydro-2-hydroxymethyl-1-{2-[4-(4-methylpyridin-2-yl)piperazin-1-yl]ethyl}-4H-pyrrolo[3,2,1-ij]quinoline], the inhibition in vivo at 20 µmol/kg in assay [1] worked out at 85%; in assay [2], 73%.

Consider `Cc1ccnc(N2CCN(CCc3c(C)n4c5c(cc(C(O)C(C)C)cc35)CCC4)CC2)c1` (stereo not shown) [Example 19, 5,6-Dihydro-8-(1-hydroxy-2-methylpropyl)-2-methyl-1-{2-[4-(4-methylpyridin-2-yl)piperazin-1-yl]ethyl}-4H-pyrrolo-[3,2,1-ij]quinoline], for which the inhibition in vivo at 20 µmol/kg in assay [1] and in assay [2] was 95% throughout.

For the compound `Cc1ccnc(N2CCN(CCc3c(C)n4c5c(cc(N)cc35)CCC4)CC2)c1` [Example 20, 8-Amino-5,6-dihydro-2-methyl-1-{2-[4-(4-methylpyridin-2-yl)piperazin-1-yl]ethyl}-4H-pyrrolo[3,2,1-ij]quinoline], the inhibition in vivo at 20 µmol/kg in assay [1] came out at 100%; in assay [2] it was 95%.

Turning to `Cc1ccnc(N2CCN(CCc3c(C)n4c5c(cc(CC(C)C)cc35)CCC4)CC2)c1` [Example 21, 5,6-Dihydro-2-methyl-8-(2-methylpropyl)-1-{2-[4-(4-methylpyridin-2-yl)piperazin-1-yl]ethyl}-4H-pyrrolo[3,2,1-ij]quinoline], the figures for the inhibition in vivo at 20 µmol/kg in assay [1] and in assay [2] were 95% and 90%, respectively.

`CCCCC1CCc2cc(C(=O)C(C)C)cc3c(CCN4CCN(c5cc(C)ccn5)CC4)c(C)n1c23` (stereo not shown) [Example 23, 4-n-Butyl-5,6-dihydro-8-(2-methyl-1-oxopropyl)-2-methyl-1-{2-[4-(4-methylpyridin-2-yl)piperazin-1-yl]ethyl}-4H-pyrrolo[3,2,1-ij]quinoline]: the inhibition in vivo at 20 µmol/kg in assay [1] came out at 100%; in assay [2] it was 95%.

As to `CC(=O)Oc1cc2c3c(c1)c(CCN1CCN(c4cc(C)ccn4)CC1)c(C)n3CCC2` [Example 24, 8-Acetoxy-5,6-dihydro-2-methyl-1-{2-[4-(4-methyl-pyridin-2-yl)piperazin-1-yl]ethyl}-4H-pyrrolo[3,2,1-ij]quinoline], the inhibition in vivo at 20 µmol/kg in assay [1] is 55%; in assay [2], 60%.

Turning to `Cc1ccnc(N2CCN(CCc3c(C)n4c5c(cc(NC(=O)c6ccccc6)cc35)CCC4)CC2)c1` [Example 25, 8-Benzoylamino-5,6-dihydro-2-methyl-1-{2-[4-(4-methylpyridin-2-yl)piperazin-1-yl]-ethyl}-4H-pyrrolo[3,2,1-ij]quinoline], the inhibition in vivo at 20 µmol/kg in assay [1] and in assay [2] was 100% in each case.

Regarding `CC(C)=Cc1cc2c3c(c1)c(CCN1CCN(c4cc(C)ccn4)CC1)c(C)n3CCC2` [Example 26, 5,6-Dihydro-2-methyl-8-(2-methylprop-1-enyl)-1-{2-[4-(4-methylpyridin-2-yl)piperazin-1-yl]ethyl}-4H-pyrrolo[3,2,1-ij]quinoline], the inhibition in vivo at 20 µmol/kg in assay [1] came out at 95%; in assay [2] it was 90%.

On to `Cc1ccnc(N2CCN(CCc3c(C)n4c5c(cc(C(=O)C(C)C)cc35)CCC4)CC2)c1` [Example 27, 5,6-dihydro-2-methyl-8-(2-methyl-1-oxopropyl)-1-{2-[4-(4-methylpyridin-2-yl)piperazin-1-yl]ethyl}-4H-pyrrolo-[3,2,1-ij]quinoline], for which the results for the inhibition in vivo at 20 µmol/kg in assay [1] and in assay [2] were 100% and 95%, respectively.

For the compound `Cc1ccnc(N2CCN(CCc3c(C)n4c5c(cccc35)CC4C)CC2)c1` (stereo not shown) [Example 33], the inhibition in vivo at 20 µmol/kg in assay [1] worked out at 100%; in assay [2], 93%.

As for `Cc1c(CCN2CCN(c3ccccn3)CC2)c2cccc3c2n1CCC3` [Example 37], the inhibition in vivo at 20 µmol/kg in assay [1] came out at 60%; in assay [2], 58%.

As to `Cc1ccnc(N2CCN(CCc3c(-c4ccc(F)cc4)n4c5c(cccc35)CCC4)CC2)c1` [Example 47], the inhibition in vivo at 20 µmol/kg in assay [1] came out at 50%; in assay [2], 20%.

Regarding `COc1ccc(C2CCc3cccc4c(CCN5CCN(c6cc(C)ccn6)CC5)c(C)n2c34)cc1` (stereo not shown) [Example 59], the inhibition in vivo at 20 µmol/kg in assay [1] and in assay [2] was 95% each time.

Consider `Cc1ccnc(N2CCN(CCc3c(C)n4c5c(cc(NC(=O)C(C)C)cc35)CCC4)CC2)c1` [Example 60], for which the inhibition in vivo at 20 µmol/kg was 100% in assay [1] and 95% in assay [2].

With `Cc1ccnc(N2CCN(CCc3c(C)n4c5c(cccc35)CCC4c3ccc(O)cc3)CC2)c1` (stereo not shown) [Example 61], the inhibition in vivo at 20 µmol/kg in assay [1] and in assay [2] was 100% in each case.

`C=CCCC1CCc2cccc3c(CCN4CCN(c5cc(C)ccn5)CC4)c(C)n1c23` (stereo not shown) [Example 62]: the inhibition in vivo at 20 µmol/kg in assay [1] turned out to be 100%; in assay [2] it was 95%.

For `CCCCC1CCc2cc(OC)cc3c(CCN4CCN(c5cc(C)ccn5)CC4)c(C)n1c23` (stereo not shown) [Example 63], the results for the inhibition in vivo at 20 µmol/kg in assay [1] and in assay [2] were 100% and 95%, respectively.

On to `COc1ccc(C2CCc3cc(OC)cc4c(CCN5CCN(c6cc(C)ccn6)CC5)c(C)n2c34)cc1` (stereo not shown) [Example 65], for which the inhibition in vivo at 20 µmol/kg was 100% in assay [1] and 95% in assay [2].

In the case of `Cc1ccnc(N2CCN(CCc3c(C)n4c5c(cc(C(=O)c6ccccc6)cc35)CCC4)CC2)c1` [Example 66], the inhibition in vivo at 20 µmol/kg in assay [1] is 80%; in assay [2], 70%.

Regarding `CC(=O)c1cc2c3c(c1)c(CCN1CCN(c4cc(C)ccn4)CC1)c(C)n3CCC2` [Example 67], the values for the inhibition in vivo at 20 µmol/kg in assay [1] and in assay [2] were 100% and 95%, respectively.

On to `CCCCC1CCc2cccc3c(CCN4CCN(c5cc(C)ccn5)CC4)c(C)n1c23` (stereo not shown) [Example 73, 4-n-butyl-5,6-dihydro-2-methyl-1-{2-[4-(4-methylpyridin-2-yl)piperazin-1-yl]ethyl}-4H-pyrrolo[3,2,1-ij]quinoline], for which the inhibition in vivo at 20 µmol/kg was 100% in assay [1] and 95% in assay [2].

For the compound `CCCCC1CCc2cc(O)cc3c(CCN4CCN(c5cc(C)ccn5)CC4)c(C)n1c23` (stereo not shown) [Example 76], the inhibition in vivo at 20 µmol/kg in assay [1] and in assay [2] was 100% in each case.

For the compound `Cc1ccnc(N2CCN(CCc3c(C)n4c5c(cc(Cc6ccccc6)cc35)CCC4)CC2)c1` [Example 77], the inhibition in vivo at 20 µmol/kg in assay [1] came to 60%; in assay [2], 30%.

Regarding `Cc1ccnc(N2CCN(CCc3c(C)n4c5c(cc(N(C)C)cc35)CCC4)CC2)c1` [Example 81], the inhibition in vivo at 20 µmol/kg was determined as 86% in assay [1] and 82% in assay [2].

As to `Cc1ccnc(N2CCN(CCc3c(C)n4c5c(ccc(C(O)C(C)C)c35)SCC4)CC2)c1` (stereo not shown) [Example 90], the inhibition in vivo at 20 µmol/kg in assay [1] is 81%; in assay [2], 77%.

`Cc1ccnc(N2CCN(CCc3c(C)n4c5c(ccc(C(=O)C(C)C)c35)SCC4)CC2)c1` [Example 91]: the inhibition in vivo at 20 µmol/kg was found to be 86% in assay [1] and 87% in assay [2].
